Values quoted from earlier work, collected in patent publication US20100286080A1, “AQUEOUS COMPOSITION COMPRISING CHITOSAN AND AN ACIDIC DRUG” (The Jordanian Pharmaceutical Manufacturing Co., priority 2007, published 2010).

Key:
[1] = single 200-mg oral dose, fasting subjects

Time of peak plasma levels after administration [1]: about 1 hr | Solubility in water: practically insoluble in water
SMILES: CC(C)Cc1ccc(C(C)C(=O)O)cc1 (centres unmarked) [Ibuprofen]
